Experimental data published in PMC4492750, “The discovery of a selective and potent A2a agonist with extended lung retention” (Pharmacology Research & Perspectives, 2015).

Experiments:
[1] = Plasma protein binding by equilibrium dialysis; type: in vitro ADME; settings: male, Wistar, pH 7.4, rat plasma, 10 μmol/L, read-out: fu rat (free unbound drug in plasma)
Experimental: (§1) • Human A2a and A2b receptor pharmacology: Chinese hamster ovary CHO-K1 cells stably expressing human A2a and A2b receptors were used to determine substances agonistic potency and intrinsic activity. […] The signal corresponding to adenosine at 100 μmol/L was used to define 100% intrinsic activity. • Human A3 receptor pharmacology: A3 receptor Gi coupling was measured by GTPγ ^35[S] filter assay at serial dilutions of compound using membranes from Perkin-Elmer. The signal corresponding to the maximal response of NECA at 100 μmol/L was set to 100% intrinsic activity. • Lipopolysaccharide (LPS)-induced TNFα production in primary human peripheral blood mononuclear cells (hTNFα PBMC) and rat mononuclears (rTNFα splenocytes): Human PBMC and rat mononuclear spleen cells were incubated with serial dilutions of compound and stimulated with LPS.
The plasma protein binding was determined in plasma from male Wistar rats at a compound concentration of 10μM by equilibrium dialysis against a phosphate buffer at pH 7.4 using a semi-permeable membrane with a molecular cut-off of 6-8KDa (Spectra/Por, Spectrum Laboratories Inc, US). The compounds were dialyzed for 18h at 37±1°C in an air incubator on an orbital shaker. The samples were analysed using LC-MS/MS.

[2] = tested on: LPS-induced BAL neutrophils; test: LPS-induced lung inflammation model, neutrophils in BAL fluid; type: in vivo, rat; settings: for Reduction of total cells and neutrophilia in BAL fluid: 10 μg/kg i.t.
Experimental: The efficacy of the compound on neutrophils in BAL fluid is expressed as per cent inhibition of the full window (negative veh/veh controls vs. the positive veh/LPS controls): Inhibition (%) of LPS-induced BAL neutrophils by compound 2 was calculated using the following formula: [drawing 1] where A is the average in the group administered with vehicle and challenged with LPS; B is the average in the group administered with vehicle and challenged with saline; and C is the average in the group administered with test compound and challenged with LPS.
Animals in all efficacy studies were dosed intratracheally as described above in a buffered saline vehicle (pH 5) containing sodium chloride (8.5mg/ml), citric acid (0.28mg/ml) and sodium citrate (0.5mg/ml). The compound was dissolved in saline when given intravenously (0.9% NaCl) to the swivelled rats.
[…] Each rat was given LPS from the Pseudomona Aeruginosa bacteria (1µg/rat, 5µg/ml saline, Sigma-Aldrich, Sweden).
24 hours after the LPS challenge, rats were anaesthetized and exsanguinated via a cardiac incision. A tube was inserted and ligated to the trachea. The tube was connected to a syringe with 4ml PBS (without Ca^2+/Mg^2+) and a lavage of the whole lung was performed manually. The BAL fluid was collected individually in polyethylene tubes and kept on ice until further processed.
The BAL fluid was centrifuged and the supernatant separated from the cell pellet that was resuspended in 1.0ml of PBS. The total number of cells and cell differentia was counted in an automated cell counter and haematology analyzer (SYSMEX XT-1800iV, software for the rat BALF).

[3] = In vivo pharmacokinetics in rats (i.v., oral, intratracheal)
Experimental: Rat PK was determined after an i.v. dose of 0.1μmol/kg (approximately 50μg/kg, 1ml/kg, TEG:H2O 50:50) given via a catheter in vena jugularis. The PK after oral administration was performed at a dose of 6μmol/kg (approximately 3mg/kg, 4ml/kg, 0.5% HPMC) given by gavage. Intratracheal PK was determined at 0.03 to 0.6μmol/kg (17 to 300μg/kg, 1ml/kg, in a vehicle containing sodium chloride (8.5mg/ml), EDTA (0.1mg/ml), citric acid (0.15mg/ml), sodium citrate (0.5mg/ml) and polysorbate 80 (0.2mg/mL) in purified water). The i.t. dose was given to anaesthetized (isofluran) rats, positioned at approximately 30° angle (head up) and the compound was administered in the trachea using a modified metal cannula. Rats were put back in their cages while regaining consciousness. Serial blood sampling of 100 to 200µl was performed after i.v. and p.o. dosing at pre-defined timepoints. Blood was mixed 1:4 with purified water containing heparin (10 to 30U/ml) in order to haemolyse the blood cells, and then placed in a 96-well plate and stored at –70°C until analysed. The dilution factor was accounted for in the data analysis. After i.t. dosing, animals were euthanized with isoflurane or pentobarbital at defined timepoints after dosing, blood samples taken from the vena jugularis or arteria carotis, handled and stored as described above. The rats were bled to drain as much blood as possible from the lungs. The lungs including the trachea were carefully dissected out with all non-relevant tissue removed, placed in pre-weighed vials and weighed. The lung vials were stored at –70°C until analyzed.
Lung tissue was frozen in liquid nitrogen and homogenised using a CryoPrep pneumatic hammer. The homogenisation of the tissue and the extraction of the compound were done in 4ml Ringer solution with an Adaptive Focused Acoustic Instrument. 50µl of the supernatant was transferred to a 96-well plate. All lung, blood and plasma samples were analysed by LC-MS/MS using a selective and sensitive method. Peak areas were used in comparison to those produced by the standard curve to determine parent compound concentrations. Homogenate concentrations were adjusted to account for the sample dilutions to give tissue concentrations.

A2a = A2a (Homo sapiens, UniProt P29274); test: Human A2a receptor pharmacology: cAMP Alphascreen in CHO-K1 cells; type: cell-based; set-up: expressed in transfected cells; host or cells: CHO-K1
Experimental: as §1
Chinese hamster ovary CHO-K1 cells stably expressing human A2a and A2b receptors were stored as 1ml aliquots at -150 °C in freezing medium, thawed immediately prior to assay. […] Cells (10000 cells/well) were incubated with test compounds prepared as serial dilutions. Potency (EC50) and efficacy (% of maximal response) were calculated from data fitted to a 4-parameter logistic function. The signal of 10µM NECA represented the maximal cAMP response (i.e. 100% of efficacy) produced by these cells.

[4] = Substance solubility in phosphate buffer; type: physicochemical; settings: aqueous buffer, thermodynamic from solid; phosphate buffer pH 7.4, dry compound in solid state
Experimental: as §1
Solubility was measured in phosphate buffer at pH 7.4 using dry compounds in solid state.

A2a, sequence (P29274 whole entry): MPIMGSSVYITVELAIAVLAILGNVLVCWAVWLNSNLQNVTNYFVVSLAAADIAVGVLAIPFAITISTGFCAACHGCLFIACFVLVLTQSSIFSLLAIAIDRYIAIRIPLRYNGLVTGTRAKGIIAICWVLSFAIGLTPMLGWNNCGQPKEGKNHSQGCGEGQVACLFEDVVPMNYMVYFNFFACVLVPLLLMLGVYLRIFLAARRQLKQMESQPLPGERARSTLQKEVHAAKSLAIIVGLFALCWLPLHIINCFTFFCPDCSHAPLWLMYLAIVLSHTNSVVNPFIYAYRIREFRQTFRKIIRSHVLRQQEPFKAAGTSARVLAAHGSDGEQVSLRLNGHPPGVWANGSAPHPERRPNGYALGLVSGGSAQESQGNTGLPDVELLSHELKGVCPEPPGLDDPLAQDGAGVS

fraction unbound at 18 h, 10 μM [1]: 0.44
Increase of rat lung t½ in comparison with UK-432,097 ([3]; i.t.): 13 fold
Rat blood clearance ([3]; i.v., mean of n = 3): 19 mL/min per kg
half-life ([3]; lung, inhaled or intranasal, rat, intratracheal dosing, n = 2/time point, read-out: Lung t½ (terminal half-life in lung) (converted)): 53 h
Kp at 24 h ([3]; other: intratracheal (i.t.), rat, i.t., ratio of lung concentration 24 h after dose to blood Cmax after same dose, read-out: Lung/blood split): 460
Percentage of dose remaining in lung at 24 h ([3]; rat, single i.t. dose (17 and 20 μmol/kg for compounds 2 and 3 as printed in Fig. 5), 24 h): 28%
bioavailability ([3]; whole blood, 6 umol/kg, rat, oral, mean of n = 3, read-out: Rat oral F (bioavailability)): 0.3%
Emax (A2a; CHO-K1, 100% = 10 μmol/L NECA, average (SD), read-out: A2a human CHO-K1 cells Intrinsic activity): 97.9%
EC50 (A2a; cAMP generation, average (SD)): 1.4 nM
Selectivity for A2a over A1, A2b and A3 (A2a; human adenosine receptors): > 1000 fold
solubility [4]: > 1000 µM
SMILES: CCNC(=O)[C@H]1O[C@@H](n2cnc3c(NC(CC)CC)nc(NCCNC(=O)Nc4cc[n+](C)cc4)nc32)[C@H](O)[C@@H]1O [Compound 2, (2S,3S,4R,5R)-N-ethyl-5-[6-(1-ethylpropylamino)-2-[2-[(1-methylpyridin-1-ium-4-yl)carbamoylamino]ethylamino]purin-9-yl]-3,4-dihydroxy-tetrahydrofuran-2-carboxamide]
Inhibition of recovered neutrophils in BAL fluid ([2]; 0.1 μg/kg i.t. single dose 24 h prior to LPS): 9%
Inhibition of recovered neutrophils in BAL fluid ([2]; 1 μg/kg i.t. single dose 24 h prior to LPS): 17%
Inhibition of recovered neutrophils in BAL fluid ([2]; 10 μg/kg i.t. for five consecutive days, LPS 24 h after last dose): 53%
Inhibition of recovered neutrophils in BAL fluid ([2]; 10 μg/kg i.t. for three consecutive days, LPS 24 h after last dose): 39%
Inhibition of recovered neutrophils in BAL fluid ([2]; 10 μg/kg i.t. single dose 24 h prior to LPS (n.s., P = 0.086)): 39%
Reduction of total cells and neutrophilia in BAL fluid ([2]; 36 and 24 h pre-treatment before LPS): significant reduction
Reduction of total cells and neutrophilia in BAL fluid ([2]; 12 h pretreatment before LPS): not significant
Maximum inhibition of neutrophil recruitment ([2]; single i.t. dose of 10 μg/kg, rodents, previous dose-response studies): 40–50%
